Experimental data taken from the NIST ThermoML archive (doi:10.1016/j.jct.2006.08.002).
Values joined by “and” are separate entries in the source; they are usually repeats but may differ in a detail not shown here. Identical values can stand only once. ± gives the expanded uncertainty stated by the source.

Assay: xn = mol fraction of the nth substance listed
Conditions: Fluid (supercritical or subcritical phases), Constant-volume piezometry

CCO [ethanol] + O
Conditions | mass density
524.15 K, 7270 kPa, x1 = 0.8 | 383.33 ± 2.6 kg/m3
525.15 K, 7460 kPa, x1 = 0.8 | 383.31 ± 3 kg/m3
526.15 K, 7550 kPa, x1 = 0.8 | 367.95 ± 10 kg/m3
528.15 K, 7710 kPa, x1 = 0.8 | 312.86 ± 35 kg/m3
528.15 K, 7870 kPa, x1 = 0.8 | 367.91 ± 21 kg/m3
528.15 K, 8040 kPa, x1 = 0.8 | 383.24 ± 7.2 kg/m3
528.15 K, 8410 kPa, x1 = 0.8 | 406.33 ± 6.3 kg/m3
531.15 K, 8420 kPa, x1 = 0.8 | 367.86 ± 6 kg/m3
533.15 K, 4750 kPa, x1 = 0.8 | 53.24 ± 2.6 kg/m3
533.15 K, 7070 kPa, x1 = 0.5 | 84.52 ± 4.7 kg/m3
533.15 K, 7100 kPa, x1 = 0.8 | 115.14 ± 5.5 kg/m3
533.15 K, 8140 kPa, x1 = 0.8 | 188.77 ± 43 kg/m3
533.15 K, 8270 kPa, x1 = 0.8 | 244.11 ± 44 kg/m3 and 260.96 ± 44 kg/m3
533.15 K, 8350 kPa, x1 = 0.8 | 284.34 ± 28 kg/m3
533.15 K, 8420 kPa, x1 = 0.8 | 312.77 ± 24 kg/m3
533.15 K, 8440 kPa, x1 = 0.8 | 307.44 ± 25 kg/m3
533.15 K, 8750 kPa, x1 = 0.8 | 367.82 ± 14 kg/m3
533.15 K, 8990 kPa, x1 = 0.8 | 383.14 ± 5.5 kg/m3
533.15 K, 9460 kPa, x1 = 0.8 | 406.22 ± 4 kg/m3
533.15 K, 10480 kPa, x1 = 0.8 | 440.21 ± 3.3 kg/m3
533.15 K, 10860 kPa, x1 = 0.8 | 446.58 ± 2.4 kg/m3
533.15 K, 17410 kPa, x1 = 0.8 | 516.16 ± 1 kg/m3
538.15 K, 9170 kPa, x1 = 0.8 | 312.69 ± 2 kg/m3
538.15 K, 27310 kPa, x1 = 0.8 | 553.51 ± 0.79 kg/m3
543.15 K, 4920 kPa, x1 = 0.8 | 53.21 ± 2.3 kg/m3
543.15 K, 7570 kPa, x1 = 0.5 | 84.48 ± 8.6 kg/m3
543.15 K, 7610 kPa, x1 = 0.8 | 115.08 ± 3.1 kg/m3
543.15 K, 9020 kPa, x1 = 0.8 | 188.68 ± 7.1 kg/m3
543.15 K, 9530 kPa, x1 = 0.8 | 260.83 ± 15 kg/m3
543.15 K, 9680 kPa, x1 = 0.8 | 284.19 ± 11 kg/m3
543.15 K, 9920 kPa, x1 = 0.8 | 312.61 ± 8.6 kg/m3
543.15 K, 10630 kPa, x1 = 0.8 | 367.62 ± 6.9 kg/m3
543.15 K, 10940 kPa, x1 = 0.8 | 382.93 ± 4.5 kg/m3
543.15 K, 11670 kPa, x1 = 0.8 | 406 ± 3.2 kg/m3
548.15 K, 7850 kPa, x1 = 0.8 | 115.06 ± 4.7 kg/m3
548.15 K, 9420 kPa, x1 = 0.8 | 188.63 ± 5.8 kg/m3
548.15 K, 9680 kPa, x1 = 0.5 | 294.01 ± 18 kg/m3
548.15 K, 9720 kPa, x1 = 0.5 | 327.56 ± 14 kg/m3
548.15 K, 9980 kPa, x1 = 0.8 | 243.92 ± 10 kg/m3
548.15 K, 10390 kPa, x1 = 0.5 | 421.66 ± 6.2 kg/m3
548.15 K, 10630 kPa, x1 = 0.8 | 307.19 ± 6.6 kg/m3
548.15 K, 10680 kPa, x1 = 0.8 | 312.53 ± 6.6 kg/m3
548.15 K, 11790 kPa, x1 = 0.5 | 464.07 ± 1.5 kg/m3
548.15 K, 11950 kPa, x1 = 0.8 | 382.83 ± 3.3 kg/m3
548.15 K, 14420 kPa, x1 = 0.8 | 439.83 ± 1.8 kg/m3
548.15 K, 14800 kPa, x1 = 0.8 | 446.2 ± 1.8 kg/m3
548.15 K, 17240 kPa, x1 = 0.5 | 522.28 ± 0.91 kg/m3
548.15 K, 26570 kPa, x1 = 0.5 | 568.89 ± 0.72 kg/m3
548.15 K, 30490 kPa, x1 = 0.5 | 581.74 ± 0.73 kg/m3
553.15 K, 5080 kPa, x1 = 0.8 | 53.19 ± 4.1 kg/m3
553.15 K, 6130 kPa, x1 = 0.5 | 55.97 ± 1.2 kg/m3
553.15 K, 7190 kPa, x1 = 0.5 | 69.28 ± 1.7 kg/m3
553.15 K, 7970 kPa, x1 = 0.5 | 84.44 ± 2.4 kg/m3
553.15 K, 9210 kPa, x1 = 0.5 | 117.47 ± 4.8 kg/m3
553.15 K, 10090 kPa, x1 = 0.5 | 171.33 ± 15 kg/m3
553.15 K, 10330 kPa, x1 = 0.5 | 234.67 ± 26 kg/m3
553.15 K, 10520 kPa, x1 = 0.5 | 327.48 ± 15 kg/m3
553.15 K, 10600 kPa, x1 = 0.5 | 293.93 ± 11 kg/m3
553.15 K, 10890 kPa, x1 = 0.5 | 385.77 ± 8.5 kg/m3
553.15 K, 11430 kPa, x1 = 0.8 | 312.45 ± 5 kg/m3
553.15 K, 11790 kPa, x1 = 0.5 | 424.77 ± 3 kg/m3
553.15 K, 11850 kPa, x1 = 0.5 | 419.86 ± 3.1 kg/m3
553.15 K, 12540 kPa, x1 = 0.8 | 367.42 ± 5.2 kg/m3
553.15 K, 13460 kPa, x1 = 0.5 | 463.93 ± 1.4 kg/m3
553.15 K, 19450 kPa, x1 = 0.5 | 522.11 ± 0.97 kg/m3
553.15 K, 25160 kPa, x1 = 0.8 | 515.53 ± 1.2 kg/m3
553.15 K, 25720 kPa, x1 = 0.5 | 555.9 ± 0.71 kg/m3
553.15 K, 47100 kPa, x1 = 0.5 | 614.98 ± 0.72 kg/m3
558.15 K, 8310 kPa, x1 = 0.8 | 115 ± 3.6 kg/m3
558.15 K, 10340 kPa, x1 = 0.8 | 188.54 ± 4.6 kg/m3
558.15 K, 11380 kPa, x1 = 0.8 | 260.63 ± 7.4 kg/m3
558.15 K, 11700 kPa, x1 = 0.8 | 283.97 ± 5.7 kg/m3
558.15 K, 13990 kPa, x1 = 0.8 | 382.62 ± 3.7 kg/m3
558.15 K, 15170 kPa, x1 = 0.8 | 405.66 ± 2 kg/m3
563.15 K, 6360 kPa, x1 = 0.5 | 55.95 ± 1.5 kg/m3
563.15 K, 7510 kPa, x1 = 0.5 | 69.25 ± 1.6 kg/m3
563.15 K, 8400 kPa, x1 = 0.5 | 84.4 ± 2.1 kg/m3
563.15 K, 8830 kPa, x1 = 0.2 | 67.68 ± 2.8 kg/m3
563.15 K, 9900 kPa, x1 = 0.5 | 117.41 ± 3.2 kg/m3
563.15 K, 11080 kPa, x1 = 0.5 | 171.24 ± 8.8 kg/m3
563.15 K, 12360 kPa, x1 = 0.5 | 327.3 ± 9 kg/m3
563.15 K, 12940 kPa, x1 = 0.8 | 312.28 ± 3.5 kg/m3
563.15 K, 12970 kPa, x1 = 0.8 | 312.28 ± 3.6 kg/m3
563.15 K, 13290 kPa, x1 = 0.5 | 385.56 ± 3.3 kg/m3
563.15 K, 14460 kPa, x1 = 0.8 | 367.22 ± 3.8 kg/m3
563.15 K, 16510 kPa, x1 = 0.5 | 463.66 ± 1.3 kg/m3
563.15 K, 23620 kPa, x1 = 0.5 | 521.79 ± 0.76 kg/m3
568.15 K, 9040 kPa, x1 = 0.2 | 67.66 ± 2.8 kg/m3
573.15 K, 5420 kPa, x1 = 0.8 | 53.14 ± 1.7 kg/m3
573.15 K, 6590 kPa, x1 = 0.5 | 55.92 ± 0.97 kg/m3
573.15 K, 7820 kPa, x1 = 0.5 | 69.21 ± 1.5 kg/m3
573.15 K, 8780 kPa, x1 = 0.5 | 84.36 ± 1.8 kg/m3
573.15 K, 8990 kPa, x1 = 0.8 | 114.92 ± 2.2 kg/m3
573.15 K, 10460 kPa, x1 = 0.5 | 117.35 ± 2.7 kg/m3
573.15 K, 11580 kPa, x1 = 0.8 | 188.4 ± 3.3 kg/m3
573.15 K, 12050 kPa, x1 = 0.5 | 171.15 ± 5.4 kg/m3
573.15 K, 12840 kPa, x1 = 0.8 | 243.61 ± 5.2 kg/m3
573.15 K, 13010 kPa, x1 = 0.5 | 234.43 ± 7.6 kg/m3
573.15 K, 13190 kPa, x1 = 0.8 | 260.43 ± 4.1 kg/m3
573.15 K, 13610 kPa, x1 = 0.5 | 293.62 ± 4.9 kg/m3
573.15 K, 13720 kPa, x1 = 0.8 | 283.75 ± 4.6 kg/m3
573.15 K, 14410 kPa, x1 = 0.8 | 306.79 ± 2.8 kg/m3
573.15 K, 14490 kPa, x1 = 0.8 | 312.12 ± 2.8 kg/m3
573.15 K, 15660 kPa, x1 = 0.5 | 385.34 ± 4 kg/m3
573.15 K, 16440 kPa, x1 = 0.8 | 367.02 ± 2.6 kg/m3
573.15 K, 16820 kPa, x1 = 0.5 | 419.39 ± 3.5 kg/m3
573.15 K, 17060 kPa, x1 = 0.5 | 421.07 ± 3 kg/m3
573.15 K, 17150 kPa, x1 = 0.8 | 382.31 ± 1.9 kg/m3
573.15 K, 17210 kPa, x1 = 0.5 | 424.29 ± 3.2 kg/m3
573.15 K, 18650 kPa, x1 = 0.8 | 405.32 ± 1.5 kg/m3
573.15 K, 20120 kPa, x1 = 0.5 | 463.38 ± 1.1 kg/m3
573.15 K, 21340 kPa, x1 = 0.8 | 439.21 ± 1.3 kg/m3
573.15 K, 22500 kPa, x1 = 0.8 | 451.39 ± 1.2 kg/m3
573.15 K, 28040 kPa, x1 = 0.5 | 521.47 ± 0.82 kg/m3
573.15 K, 39960 kPa, x1 = 0.5 | 567.95 ± 0.73 kg/m3
573.15 K, 44900 kPa, x1 = 0.5 | 580.76 ± 0.7 kg/m3
577.15 K, 45760 kPa, x1 = 0.8 | 552.13 ± 0.71 kg/m3
578.15 K, 23390 kPa, x1 = 0.8 | 445.43 ± 0.87 kg/m3
578.15 K, 35170 kPa, x1 = 0.8 | 514.74 ± 0.76 kg/m3
578.15 K, 38000 kPa, x1 = 0.5 | 555.01 ± 0.71 kg/m3
593.15 K, 50760 kPa, x1 = 0.5 | 567.2 ± 0.7 kg/m3
598.15 K, 5820 kPa, x1 = 0.8 | 53.08 ± 1.5 kg/m3
598.15 K, 7080 kPa, x1 = 0.5 | 55.85 ± 0.73 kg/m3
598.15 K, 8560 kPa, x1 = 0.5 | 69.13 ± 1.2 kg/m3
598.15 K, 9720 kPa, x1 = 0.5 | 84.26 ± 1.4 kg/m3
598.15 K, 10060 kPa, x1 = 0.8 | 114.78 ± 1.7 kg/m3
598.15 K, 11840 kPa, x1 = 0.5 | 117.21 ± 2.7 kg/m3
598.15 K, 12030 kPa, x1 = 0.2 | 90.05 ± 2.1 kg/m3
598.15 K, 13600 kPa, x1 = 0.8 | 188.16 ± 2.3 kg/m3
598.15 K, 14290 kPa, x1 = 0.2 | 138.08 ± 3.7 kg/m3
598.15 K, 15290 kPa, x1 = 0.2 | 221.72 ± 38 kg/m3
598.15 K, 15460 kPa, x1 = 0.2 | 286.74 ± 29 kg/m3
